Measured values taken from US8927300B2, “Method and compositions for the detection of protein glycosylation” (California Institute of Technology, priority 2003, dated 2015).
Residue numbers refer to the chain shown, from its start. “Also recorded” adds a separate entry of the source.

Assays:
[1] = biological target: T1, GalT (Bos taurus, UniProt P08037); details: relative to Gal; cited from earlier work
T1 sequence (P08037 1-402): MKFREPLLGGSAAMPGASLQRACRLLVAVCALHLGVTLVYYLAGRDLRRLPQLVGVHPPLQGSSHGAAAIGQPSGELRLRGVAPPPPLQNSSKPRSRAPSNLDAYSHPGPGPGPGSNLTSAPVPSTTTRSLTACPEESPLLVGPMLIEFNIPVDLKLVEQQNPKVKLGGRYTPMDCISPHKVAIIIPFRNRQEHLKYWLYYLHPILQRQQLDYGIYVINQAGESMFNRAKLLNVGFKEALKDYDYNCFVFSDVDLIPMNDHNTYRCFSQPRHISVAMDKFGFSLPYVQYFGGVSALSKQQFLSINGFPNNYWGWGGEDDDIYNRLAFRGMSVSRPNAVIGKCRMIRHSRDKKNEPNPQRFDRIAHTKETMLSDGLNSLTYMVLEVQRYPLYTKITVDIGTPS

[2] = biological target: T2, Y289L GalT (Bos taurus, UniProt P08037, Y289L); test: Transfer of keto-sugar from labeling agent 1 to O-GlcNAc peptide by Y289L mutant GalT, LC-MS; type: biochemical; details: peptide TAPTS(O-GlcNAc)TIAPG, 6 h at 4° C., diammonium salt
T2 construct: made in house
T2 sequence (P08037 1-402 Y289L): T1 sequence (P08037 1-402) with Y289L
Experimental: The peptide TAPTS(O-GlcNAc)TIAPG (SEQ ID NO: 1) (10 μM) was dissolved in 25 mM MOPS buffer, pH 6.7 containing 5 mM MnCl2 and 8 μM reference peptide (ThermoFinnigan, San Jose, Calif.). Labeling agent 1 and mutant Y289L GalT were added to final concentrations of 1 mM and 100 ng/μL, respectively. Prior to enzyme addition, an aliquot of the—reaction was removed as an initial time point for LC-MS analysis. Reactions were incubated at 4° C. for 6 h, after which an aliquot of the reaction mixture was removed for product analysis by LC-MS. The remainder of the reaction was diluted 5-fold into PBS (final concentration: 10.1 mM Na2HPO4, 1.76 mM KH2HPO4, […], 2.7 mM KCl, pH 6.7), and N-(aminooxyacetyl)-N′-(D-biotinoyl) hydrazine (Molecular Probes, Eugene, Oreg.) was added to a final concentration of 12 mM. After 8 h at 25° C., the extent of biotin-oxime product was measured by LC-MS. […] Labeling reactions with wild-type GalT were performed identically, with the exception that reactions were incubated at 37° C. for 12 h. […]
Base peak chromatograms are shown before and 6 h after the addition of ketone analogue 1 and Y289L GalT. […] For reaction with detection agent aminooxy biotin, formation of the oxime product was monitored using an extracted ion chromatogram within the mass range 1319.0-1321.0 m/z and 1633.0-1635.5 m/z, which was generated post-acquisition via the Xcalibur™ software. […]

[3] = tested on: O-GlcNAc pendant moiety on α-crystallin; test: Western / lectin blotting of α-crystallin with existing O-GlcNAc detection reagents; type: binding, bovine; details: blot, chemiluminescence, even when 10 μg of α-crystallin was used
Experimental: α-Crystallin, and appropriate positive and negative controls were resolved by 15% SDS-PAGE. All Western blotting steps were performed at RT unless otherwise noted. […] RL-2 antibody, at a concentration of 1:2000, was subsequently added in blocking buffer and blots were incubated for 1.5-2 h. Blots were then rinsed with hsTBST and washed 6×5 min. Secondary goat anti-mouse IgG antibody was applied at a concentration of 1:10,000 in hsTBS-T containing 1% BSA. After 1 h, blots were rinsed and washed as described before chemiluminescence detection on film (FIG. 11A). Western blotting with the CTD110.6 antibody was performed according to manufacturer's recommendations. Briefly, α-crystallin and controls were transferred to PVDF and washed 2×15 min with TBS-0.1% tween-20 (TBST). Blots were blocked in TBST containing 3% BSA for 1 h, rinsed 2× with TBST, and probed with CTD110.6 (1:2500) in blocking buffer for 1 h. Blots were then rinsed 2× with TBST and washed 2×5 min. Secondary goat anti-mouse IgM antibody was applied at a concentration of 1:10,000 in blocking buffer for 1 h, and blots were subsequently rinsed with TBST and washed 5×5 min before chemiluminescence detection on film (FIG. 11B).
WGA western blotting was performed essentially as described (25, 27). Briefly, α-crystallin and controls were resolved by 15% SDS-PAGE and electrophoretically transferred to nitrocellulose. […]

## OCC1OC(O)CC(O)[C@H]1O (stereo partly drawn) [2-deoxy-Gal]
[1]
  rate of transfer by GalT: rates comparable to Gal

## Uridine 5′-diphospho-2-acetonyl-2deoxy-a-D-galactopyranose diammonium salt [Labeling agent 1]
[2]
  conversion of peptide to ketone-labeled product: Complete conversion

B1: WGA: wheat-germ agglutinin lectin, existing method to detect GlcNAc (protein)
chain: QRCGEQGSNMECPNNLCCSQYGYCGMGGDYCGKGCQNGACWTSKRCGSQAGGATCTNNQCCSQYGYCGFGAEYCGAGCQGGPCRADIKCGSQAGGKLCPNNLCCSQWGFCGLGSEFCGGGCQSGACSTDKPCGKDAGGRVCTNNYCCSKWGSCGIGPGYCGAGCQSGGCDG
[3]
  detection of O-GlcNAc on α-crystallin: failed to detect; also recorded: could not detect
